Experimental data taken from PubChem BioAssay AID256 (DTP/NCI, 2004).
Where “and” joins values, the source holds several entries; their conditions need not be identical. Identical values can stand only once. Toxic doses and inconclusive results are not listed. Rule for the calls: active = survival T/C of 150% or more; inactive = T/C below 125% in these data.

Test system: CD2F1 mice, L1210 leukemia ip, survival T/C
Assay: NCI In Vivo Anticancer Drug Screen. Data for tumor model L1210 Leukemia (intraperitoneal) in CD2F1 (CDF1) mice
Settings: endpoint: mean survival time, higher = longer survival
Protocol: The antitumor activity of compounds was measured in mice bearing transplantable tumors. Survival or tumor size were measured and the results are expressed as the measurement made in the treated group (T) divided by the measurement made in the vehicle treated control group (C). The tumor model used in this assay is L1210 Leukemia (intraperitoneal) in CD2F1 (CDF1) mice

[1] = dose: 100.0 mg/kg/injection, schedule: Q01DX001 (ip), vehicle: Klucel (hydroxypropylcellulose) (HPC)
[2] = dose: 200.0 mg/kg/injection, schedule: Q01DX001 (ip), vehicle: Klucel (hydroxypropylcellulose) (HPC)
[3] = dose: 100.0 mg/kg/injection, schedule: Q04DX003 (ip), vehicle: saline with Tween-80
[4] = dose: 200.0 mg/kg/injection, schedule: Q04DX003 (ip), vehicle: saline with Tween-80
[5] = dose: 400.0 mg/kg/injection, schedule: Q04DX003 (ip), vehicle: saline with Tween-80
[6] = dose: 100.0 mg/kg/injection, schedule: Q01DX001 (ip), vehicle: saline with Tween-80
[7] = dose: 200.0 mg/kg/injection, schedule: Q01DX001 (ip), vehicle: saline with Tween-80
[8] = dose: 25.0 mg/kg/injection, schedule: Q01DX001 (ip), vehicle: saline with Tween-80
[9] = dose: 50.0 mg/kg/injection, schedule: Q01DX001 (ip), vehicle: saline with Tween-80
[10] = dose: 100.0 mg/kg/injection, schedule: Q04DX002 (ip), vehicle: saline with Tween-80
[11] = dose: 100.0 mg/kg/injection, schedule: Q01DX009 (ip), vehicle: saline with Tween-80
[12] = dose: 200.0 mg/kg/injection, schedule: Q01DX009 (ip), vehicle: saline with Tween-80
[13] = dose: 400.0 mg/kg/injection, schedule: Q01DX009 (ip), vehicle: saline with Tween-80

Measured: T/C

C(=Nc1cccc2ccccc12)c1ccc2c(c1)OCO2
inactive: [1] 98 % of control | dose: 100.0 mg/kg/injection, schedule: Q01DX009 (ip), vehicle: Klucel (hydroxypropylcellulose) (HPC) 91 % of control | [2] 93 % of control | dose: 200.0 mg/kg/injection, schedule: Q01DX009 (ip), vehicle: Klucel (hydroxypropylcellulose) (HPC) 96 % of control | dose: 400.0 mg/kg/injection, schedule: Q01DX001 (ip), vehicle: Klucel (hydroxypropylcellulose) (HPC) 96 % of control | dose: 400.0 mg/kg/injection, schedule: Q01DX009 (ip), vehicle: Klucel (hydroxypropylcellulose) (HPC) 96 % of control

CC(=O)Nc1ccc(CN(C)N=Nc2ccc(C(=O)O)cc2)cc1
inactive: dose: 25.0 mg/kg/injection, schedule: Q01DX009 (ip), vehicle: water 95 % of control | dose: 50.0 mg/kg/injection, schedule: Q01DX009 (ip), vehicle: water 97 % of control | dose: 100.0 mg/kg/injection, schedule: Q01DX009 (ip), vehicle: water 106 % of control | dose: 200.0 mg/kg/injection, schedule: Q01DX009 (ip), vehicle: water 86 % of control | dose: 400.0 mg/kg/injection, schedule: Q01DX009 (ip), vehicle: water 95 % of control

CC(NC(=O)CNC(=O)CNC(=O)OCc1ccccc1)C(=O)OCc1ccccc1 (stereo unspecified)
inactive: [3] 97 % of control | [4] 99 % of control | [5] 101 % of control

O=[N+]([O-])c1cccc(/C=C/C2(CCl)OCCO2)c1
inactive: [6] 101 % of control | [7] 116 % of control

CCCCCCCCC(=O)CCCC
inactive: dose: 100.0 mg/kg/injection, schedule: Q04DX003 (ip), vehicle: saline 102 % of control | dose: 200.0 mg/kg/injection, schedule: Q04DX003 (ip), vehicle: saline 100 % of control | dose: 400.0 mg/kg/injection, schedule: Q04DX003 (ip), vehicle: saline 98 % of control

CC1OC1C(=O)C1(O)C(C)C(O)C23OC2(C(O)c2c(O)cccc2C3=O)C1O (stereo unspecified)
inactive: dose: 0.5 mg/kg/injection, schedule: Q01DX009 (ip), vehicle: Klucel (hydroxypropylcellulose) (HPC) 98 % of control and 101 % of control | dose: 1.0 mg/kg/injection, schedule: Q01DX009 (ip), vehicle: Klucel (hydroxypropylcellulose) (HPC) 98 % of control and 102 % of control (2×) | dose: 2.0 mg/kg/injection, schedule: Q01DX009 (ip), vehicle: Klucel (hydroxypropylcellulose) (HPC) 104 % of control and 105 % of control and 107 % of control | dose: 4.0 mg/kg/injection, schedule: Q01DX009 (ip), vehicle: Klucel (hydroxypropylcellulose) (HPC) 114 % of control and 102 % of control and 103 % of control | dose: 8.0 mg/kg/injection, schedule: Q01DX009 (ip), vehicle: Klucel (hydroxypropylcellulose) (HPC) 120 % of control and 104 % of control and 109 % of control | dose: 16.0 mg/kg/injection, schedule: Q01DX009 (ip), vehicle: Klucel (hydroxypropylcellulose) (HPC) 104 % of control

O=[N+]([O-])c1ccc(C2C3C(c4ccccc4)=NCN32)cc1 (stereo unspecified)
inactive: [3] 96 % of control | [4] 97 % of control | [5] 92 % of control

CC(=O)COc1cccc(C)c1
inactive: [3] 100 % of control | [4] 103 % of control | [5] 93 % of control

CC(CN=[N+]=[N-])OC(=O)C(F)(F)F (stereo unspecified)
inactive: dose: 37.5 mg/kg/injection, schedule: Q01DX009 (ip), vehicle: saline 94 % of control | dose: 75.0 mg/kg/injection, schedule: Q01DX001 (ip), vehicle: saline 98 % of control | dose: 75.0 mg/kg/injection, schedule: Q01DX009 (ip), vehicle: saline 94 % of control | dose: 150.0 mg/kg/injection, schedule: Q01DX001 (ip), vehicle: saline 101 % of control

CC(c1ccccc1)n1cncc1CN1CCOCC1 (stereo unspecified)
inactive: dose: 12.5 mg/kg/injection, schedule: Q04DX002 (ip), vehicle: saline with Tween-80 91 % of control | [8] 102 % of control | dose: 25.0 mg/kg/injection, schedule: Q04DX002 (ip), vehicle: saline with Tween-80 98 % of control | [9] 102 % of control | dose: 50.0 mg/kg/injection, schedule: Q04DX002 (ip), vehicle: saline with Tween-80 98 % of control | [6] 95 % of control and 98 % of control | [10] 95 % of control

C1CN(P2(N3CC3)=NP(N3CC3)(N3CC3)=NP(N3CC3)(N3CC3)=N2)CCO1 (stereo unspecified)
inactive: dose: 6.25 mg/kg/injection, schedule: Q01DX009 (ip), vehicle: saline 120 % of control and 123 % of control and 109 % of control | dose: 25.0 mg/kg/injection, schedule: Q01DX001 (ip), vehicle: saline 121 % of control | dose: 50.0 mg/kg/injection, schedule: Q01DX001 (ip), vehicle: saline 119 % of control | dose: 100.0 mg/kg/injection, schedule: Q01DX009 (ip), vehicle: saline 98 % of control

CCCCC(NC(=O)C(C)NC(=O)OCc1ccccc1)C(=O)O (stereo unspecified)
inactive: [3] 98 % of control | [4] 101 % of control | [5] 98 % of control

O=S1(=O)c2ccccc2Oc2ccccc21
inactive: [11] 97 % of control | [12] 107 % of control | [13] 95 % of control

Nc1c(Cl)cc2c(c1Cl)Cc1c-2cc(Br)c(N)c1Br
inactive: dose: 12.5 mg/kg/injection, schedule: Q01DX001 (ip), vehicle: saline with Tween-80 100 % of control | [8] 97 % of control | [9] 97 % of control | [6] 101 % of control

COc1ccc(N(C)C/C(CN)=N/O)cc1
inactive: [1] 97 % of control | [2] 102 % of control

CC(=O)Nc1cc(N(CCOS(C)(=O)=O)CCOS(C)(=O)=O)ccc1N=O
inactive: dose: 0.25 mg/kg/injection, schedule: Q01DX009 (ip), vehicle: saline 117 % of control | dose: 0.5 mg/kg/injection, schedule: Q01DX009 (ip), vehicle: saline 116 % of control | dose: 1.0 mg/kg/injection, schedule: Q01DX009 (ip), vehicle: saline 95 % of control | dose: 1.5 mg/kg/injection, schedule: Q04DX003 (ip), vehicle: saline 120 % of control | dose: 2.0 mg/kg/injection, schedule: Q01DX009 (ip), vehicle: saline 95 % of control | dose: 3.0 mg/kg/injection, schedule: Q04DX003 (ip), vehicle: saline 115 % of control | dose: 6.0 mg/kg/injection, schedule: Q04DX003 (ip), vehicle: saline 107 % of control

CC1=NN(c2ccccc2)C(=O)C1
inactive: [11] 98 % of control | [3] 94 % of control | [12] 102 % of control | [4] 92 % of control | [13] 96 % of control | [5] 86 % of control

Cn1c(=O)c2c(ncn2CCNCC(O)c2cc(C(C)(C)C)c(O)c(C(C)(C)C)c2)n(C)c1=O (stereo unspecified)
inactive: dose: 12.5 mg/kg/injection, schedule: Q01DX005 (ip), vehicle: distilled water + Tween-80 100 % of control | dose: 25.0 mg/kg/injection, schedule: Q01DX005 (ip), vehicle: distilled water + Tween-80 100 % of control | dose: 50.0 mg/kg/injection, schedule: Q01DX005 (ip), vehicle: distilled water + Tween-80 106 % of control | dose: 100.0 mg/kg/injection, schedule: Q01DX005 (ip), vehicle: distilled water + Tween-80 109 % of control | dose: 200.0 mg/kg/injection, schedule: Q01DX005 (ip), vehicle: distilled water + Tween-80 101 % of control

NC(=S)N/N=C/c1cccc(CC(O)(C(F)(F)F)C(F)(F)F)n1
inactive: dose: 12.5 mg/kg/injection, schedule: Q04DX003 (ip), vehicle: saline with Tween-80 97 % of control | dose: 25.0 mg/kg/injection, schedule: Q04DX003 (ip), vehicle: saline with Tween-80 94 % of control | dose: 50.0 mg/kg/injection, schedule: Q04DX003 (ip), vehicle: saline with Tween-80 96 % of control

CC1=C(C2=C(C)C([N+](=O)[O-])(C(C)(C)C)C=C(C(C)(C)C)C2=O)C(=O)C(C(C)(C)C)=CC1([N+](=O)[O-])C(C)(C)C (stereo unspecified)
inactive: [10] 90 % of control | dose: 200.0 mg/kg/injection, schedule: Q04DX002 (ip), vehicle: saline with Tween-80 94 % of control | dose: 400.0 mg/kg/injection, schedule: Q04DX002 (ip), vehicle: saline with Tween-80 90 % of control

C(#Cc1ccccc1)/C=C/C(=C\c1ccccc1)c1ccccc1
inactive: [6] 92 % of control | [7] 89 % of control | dose: 400.0 mg/kg/injection, schedule: Q01DX001 (ip), vehicle: saline with Tween-80 87 % of control

NC(=O)COc1c(I)cc(I)cc1I
inactive: dose: 100.0 mg/kg/injection, schedule: Q01DX009 (ip), vehicle: saline sonified 101 % of control | [3] 98 % of control | dose: 200.0 mg/kg/injection, schedule: Q01DX009 (ip), vehicle: saline sonified 92 % of control | [4] 98 % of control | dose: 400.0 mg/kg/injection, schedule: Q01DX009 (ip), vehicle: saline sonified 89 % of control | [5] 96 % of control
